Assay results as given in patent US20020137929A1, “1 - (3-heterocyclylphenyl) isothiourea, -isourea, -guanidine and -amidine herbicidal agents” (Intellectual Property Department, BASF Aktiengesellschaft, priority 1998, published 2002).

Key:
SETVI (Foxtail, Green) [1] = assay: Postemergence herbicidal evaluation; type: in vivo, Setaria viridis; conditions: postemergence
Outline: (§1)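 Visual 0–9 rating versus control (stand, vigor, malformation, size, chlorosis, overall appearance), taken four to five weeks post-spray. Two-week-old seedlings received roughly 0.0156–0.500 kg/ha active in acetone/water (50/50) with 0.5% TWEEN 20 via nozzle at 40 psi.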

ORYSAT (Rice, Tebonnet) = assay: Postemergence herbicidal evaluation; type: in vivo, Oryza sativa, (L.) Tebonnet; conditions: postemergence
Outline: as §1

ZEAMX (Corn, Field) [2] = assay: Postemergence herbicidal evaluation; type: in vivo, Zea mays; conditions: postemergence
Outline: as §1

ECHCG (Barnyardgrass) = assay: Preemergence herbicidal evaluation; type: in vivo, Echinochloa crus-galli; conditions: preemergence, rated 4-5 weeks after treatment, 0-9 scale
Outline: (§2)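 Seeds were planted in potting soil in cups, then sprayed preemergence with the test compound in aqueous acetone at about 0.0156 to 0.500 kg per hectare. Cups were kept under greenhouse conditions and visually rated 4–5 weeks after treatment on a 0–9 scale against an untreated control.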

SETVI (Foxtail, Green) [3] = assay: Preemergence herbicidal evaluation; type: in vivo, Setaria viridis; conditions: preemergence, rated 4-5 weeks after treatment, 0-9 scale
Outline: as §2

[4] = system: TRZAWR (Wheat, Winter, cv Riband); assay: Preemergence herbicidal evaluation; type: in vivo, Triticum aestivum; conditions: preemergence, rated 4-5 weeks after treatment, 0-9 scale
Outline: as §2

ZEAMX (Corn, Field) [5] = assay: Preemergence herbicidal evaluation; type: in vivo, Zea mays; conditions: preemergence, rated 4-5 weeks after treatment, 0-9 scale
Outline: as §2

[6] = system: ECHORC (Watergrass (Calif.)); assay: Preemergence weed control under flooded paddy conditions; type: in vivo, Echinochloa oryzoides; conditions: rated 3-4 weeks after treatment
Outline: (§3)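 Seeds or propagules sown in top 0.5 cm of silt loam soil, flooded 1.5 to 3 cm above surface throughout. Compound in 50/50 v/v aqueous/acetone pipetted into flood water at about 0.0313 to 0.500 kg/ha. Visual 0-9 rating versus control after three to four weeks in greenhouse.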

CYPIR (Rice Flatsedge) [7] = assay: as above; type: in vivo, Cyperus iria; conditions: rated 3-4 weeks after treatment
Outline: as §3

CYPSE (Flatsedge) [8] = assay: as above; type: in vivo, Cyperus serotinus; conditions: rated 3-4 weeks after treatment
Outline: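 Visual injury scored 0-9 against control three to four weeks post-treatment, greenhouse-grown. Application: acetone/water (50/50) solutions dosed directly into flood water (1.5-3 cm over silt loam, planted top 0.5 cm), roughly 0.0313 to 0.500 kg/ha active ingredient.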

[9] = system: ECHORC (Watergrass (Calif.)); assay: Postemergence weed control under flooded paddy conditions; type: in vivo, Echinochloa oryzoides; conditions: postemergence weeds, rated 3 to 4 weeks after treatment
Outline: (§4)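 With weeds 3 to 5 cm tall and rice at the 1.5 to 2.5 leaf stage, containers were flooded and water held 1.5 to 3 cm above soil. Compounds in 50/50 v/v aqueous/acetone went into the flood water at about 0.0313 to 0.500 kg/ha a.i. Effects were visually rated 0–9 against controls after three to four weeks in the greenhouse.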

CYPIR (Rice Flatsedge) [10] = assay: as above; type: in vivo, Cyperus iria; conditions: postemergence weeds, rated 3 to 4 weeks after treatment
Outline: as §4

CYPSE (Flatsedge) [11] = assay: as above; type: in vivo, Cyperus serotinus; conditions: postemergence weeds, rated 3 to 4 weeks after treatment
Outline: as §4

[12] = system: SAGPY (Arrowhead (Pygmaea)); assay: as above; type: in vivo, Sagittaria pygmaea; conditions: postemergence weeds, rated 3 to 4 weeks after treatment
Outline: as §4

CCOC(=O)CN1C(=O)C(CC(=O)NOC)SC1=Nc1cc(-n2c(=O)cc(C(F)(F)F)n(C)c2=O)c(F)cc1Cl (centres unmarked) [Compound 83, Ethyl 2-{{2-chloro-5-[3,6-dihydro-3-methyl-2,6-dioxo-4-(trifluoromethyl)-1(2H)-pyrimidinyl]-4-fluorophenyl}imino}-5-[(methoxycarbamoyl)methyl]-4-oxo-3-thiazolidineacetate]
4.5: ZEAMX herbicidal rating (ZEAMX (Corn, Field) [2]; rate 0.0156 kg/ha)
4.0: ECHCG rating (ECHCG (Barnyardgrass); 0.5000 kg/ha)
8.0: SETVI herbicidal rating (SETVI (Foxtail, Green) [1]; rate 0.0625 kg/ha) | SETVI herbicidal rating (SETVI (Foxtail, Green) [1]; rate 0.1250 kg/ha)
5.0: TRZAWR rating ([4]; 0.5000 kg/ha) | ECHORC herbicidal effect rating ([6]; 0.0313 kg/ha) | CYPIR herbicidal effect rating (CYPIR (Rice Flatsedge) [7]; 0.0313 kg/ha) | CYPSE herbicidal effect rating (CYPSE (Flatsedge) [8]; 0.2500 kg/ha) | Herbicidal rating ECHORC ([9]; Rate 0.0313 kg/ha) | Herbicidal rating CYPIR (CYPIR (Rice Flatsedge) [10]; Rate 0.0313 kg/ha) | Herbicidal rating CYPSE (CYPSE (Flatsedge) [11]; Rate 0.2500 kg/ha)
1.5: ORYSAT herbicidal rating (ORYSAT (Rice, Tebonnet); rate 0.0156 kg/ha)
0.0: SETVI herbicidal rating (SETVI (Foxtail, Green) [1]; rate 0.0156 kg/ha) | ECHCG rating (ECHCG (Barnyardgrass); 0.0156 kg/ha) | ECHCG rating (ECHCG (Barnyardgrass); 0.0313 kg/ha) | ECHCG rating (ECHCG (Barnyardgrass); 0.0625 kg/ha) | ECHCG rating (ECHCG (Barnyardgrass); 0.1250 kg/ha) | ECHCG rating (ECHCG (Barnyardgrass); 0.2500 kg/ha) | SETVI rating (SETVI (Foxtail, Green) [3]; 0.0156 kg/ha) | SETVI rating (SETVI (Foxtail, Green) [3]; 0.0313 kg/ha) | SETVI rating (SETVI (Foxtail, Green) [3]; 0.0625 kg/ha) | TRZAWR rating ([4]; 0.0156 kg/ha) | TRZAWR rating ([4]; 0.0313 kg/ha) | TRZAWR rating ([4]; 0.0625 kg/ha) | TRZAWR rating ([4]; 0.1250 kg/ha) | TRZAWR rating ([4]; 0.2500 kg/ha) | ZEAMX rating (ZEAMX (Corn, Field) [5]; 0.0156 kg/ha) | ZEAMX rating (ZEAMX (Corn, Field) [5]; 0.0313 kg/ha) | ZEAMX rating (ZEAMX (Corn, Field) [5]; 0.0625 kg/ha) | ZEAMX rating (ZEAMX (Corn, Field) [5]; 0.1250 kg/ha) | ZEAMX rating (ZEAMX (Corn, Field) [5]; 0.2500 kg/ha) | CYPSE herbicidal effect rating (CYPSE (Flatsedge) [8]; 0.0313 kg/ha) | Herbicidal rating CYPSE (CYPSE (Flatsedge) [11]; Rate 0.0313 kg/ha)
9.0: SETVI rating (SETVI (Foxtail, Green) [3]; 0.2500 kg/ha) | SETVI rating (SETVI (Foxtail, Green) [3]; 0.5000 kg/ha) | Herbicidal rating SAGPY ([12]; Rate 0.2500 kg/ha)
7.5: ZEAMX herbicidal rating (ZEAMX (Corn, Field) [2]; rate 0.0313 kg/ha) | ZEAMX herbicidal rating (ZEAMX (Corn, Field) [2]; rate 0.0625 kg/ha) | ZEAMX herbicidal rating (ZEAMX (Corn, Field) [2]; rate 0.1250 kg/ha)
7.0: ZEAMX rating (ZEAMX (Corn, Field) [5]; 0.5000 kg/ha) | ECHORC herbicidal effect rating ([6]; 0.1250 kg/ha) | ECHORC herbicidal effect rating ([6]; 0.2500 kg/ha) | CYPIR herbicidal effect rating (CYPIR (Rice Flatsedge) [7]; 0.2500 kg/ha) | Herbicidal rating ECHORC ([9]; Rate 0.1250 kg/ha) | Herbicidal rating ECHORC ([9]; Rate 0.2500 kg/ha) | Herbicidal rating CYPIR (CYPIR (Rice Flatsedge) [10]; Rate 0.2500 kg/ha) | Herbicidal rating SAGPY ([12]; Rate 0.0313 kg/ha) | Herbicidal rating SAGPY ([12]; Rate 0.0625 kg/ha) | Herbicidal rating SAGPY ([12]; Rate 0.1250 kg/ha)
3.0: ORYSAT herbicidal rating (ORYSAT (Rice, Tebonnet); rate 0.0625 kg/ha) | ORYSAT herbicidal rating (ORYSAT (Rice, Tebonnet); rate 0.1250 kg/ha) | CYPSE herbicidal effect rating (CYPSE (Flatsedge) [8]; 0.1250 kg/ha) | Herbicidal rating CYPSE (CYPSE (Flatsedge) [11]; Rate 0.1250 kg/ha)
6.0: ECHORC herbicidal effect rating ([6]; 0.0625 kg/ha) | CYPIR herbicidal effect rating (CYPIR (Rice Flatsedge) [7]; 0.0625 kg/ha) | CYPIR herbicidal effect rating (CYPIR (Rice Flatsedge) [7]; 0.1250 kg/ha) | Herbicidal rating ECHORC ([9]; Rate 0.0625 kg/ha) | Herbicidal rating CYPIR (CYPIR (Rice Flatsedge) [10]; Rate 0.0625 kg/ha) | Herbicidal rating CYPIR (CYPIR (Rice Flatsedge) [10]; Rate 0.1250 kg/ha)
2.5: ORYSAT herbicidal rating (ORYSAT (Rice, Tebonnet); rate 0.0313 kg/ha)
2.0: SETVI herbicidal rating (SETVI (Foxtail, Green) [1]; rate 0.0313 kg/ha) | SETVI rating (SETVI (Foxtail, Green) [3]; 0.1250 kg/ha)
